IC50 data for 11 compounds are collected here from patent US8987268B2, “Pyrrolopyridazine JAK3 inhibitors and their use for the treatment of inflammatory and autoimmune diseases” (Bristol-Myers Squibb Company, priority 2011, dated 2015).

One assay addresses GST-JAK3 enzyme (Homo sapiens (Human), UniProt P52333). The experiment in a line: JAK3 Kinase Assay Protocol (Caliper). Type of assay: biochemical. Particulars: JAK3 kinase inhibition; read-out: LLE_JAK3_FB (IC50). How it is done:
JAK3 Kinase Assay Protocol (Caliper)
(§1) The assay reactions were performed in U-bottom 384-well plates. […] The reaction was initiated by the combination of GST-JAK3 enzyme with substrates and test compounds. The reactions were incubated at room temperature for 3 hours and terminated by adding 60 μl of 35 mM EDTA to each sample. Each reaction mixture was analyzed on the Caliper LabChip 3000 (Caliper, Hopkinton, Mass.) by electrophoretic separation of the fluorescent substrate and phosphorylated product. […] Compounds were dissolved at 10 mM in dimethylsulfoxide (DMSO) and evaluated at eleven concentrations. IC50 values were derived by non-linear regression analysis.

The target in another assay is GST-JAK1 enzyme (Homo sapiens (Human), UniProt P23458). The experiment in a line: JAK1 Kinase Assay Protocol. Type of assay: biochemical. Particulars: JAK1 kinase inhibition; read-out: LLE_JAK1 (IC50). How it is done:
JAK1 Kinase Assay Protocol
as §1, with “GST-JAK1” for “GST-JAK3”

Structures are written as SMILES.

Sequence of GST-JAK1 enzyme (P23458 whole entry): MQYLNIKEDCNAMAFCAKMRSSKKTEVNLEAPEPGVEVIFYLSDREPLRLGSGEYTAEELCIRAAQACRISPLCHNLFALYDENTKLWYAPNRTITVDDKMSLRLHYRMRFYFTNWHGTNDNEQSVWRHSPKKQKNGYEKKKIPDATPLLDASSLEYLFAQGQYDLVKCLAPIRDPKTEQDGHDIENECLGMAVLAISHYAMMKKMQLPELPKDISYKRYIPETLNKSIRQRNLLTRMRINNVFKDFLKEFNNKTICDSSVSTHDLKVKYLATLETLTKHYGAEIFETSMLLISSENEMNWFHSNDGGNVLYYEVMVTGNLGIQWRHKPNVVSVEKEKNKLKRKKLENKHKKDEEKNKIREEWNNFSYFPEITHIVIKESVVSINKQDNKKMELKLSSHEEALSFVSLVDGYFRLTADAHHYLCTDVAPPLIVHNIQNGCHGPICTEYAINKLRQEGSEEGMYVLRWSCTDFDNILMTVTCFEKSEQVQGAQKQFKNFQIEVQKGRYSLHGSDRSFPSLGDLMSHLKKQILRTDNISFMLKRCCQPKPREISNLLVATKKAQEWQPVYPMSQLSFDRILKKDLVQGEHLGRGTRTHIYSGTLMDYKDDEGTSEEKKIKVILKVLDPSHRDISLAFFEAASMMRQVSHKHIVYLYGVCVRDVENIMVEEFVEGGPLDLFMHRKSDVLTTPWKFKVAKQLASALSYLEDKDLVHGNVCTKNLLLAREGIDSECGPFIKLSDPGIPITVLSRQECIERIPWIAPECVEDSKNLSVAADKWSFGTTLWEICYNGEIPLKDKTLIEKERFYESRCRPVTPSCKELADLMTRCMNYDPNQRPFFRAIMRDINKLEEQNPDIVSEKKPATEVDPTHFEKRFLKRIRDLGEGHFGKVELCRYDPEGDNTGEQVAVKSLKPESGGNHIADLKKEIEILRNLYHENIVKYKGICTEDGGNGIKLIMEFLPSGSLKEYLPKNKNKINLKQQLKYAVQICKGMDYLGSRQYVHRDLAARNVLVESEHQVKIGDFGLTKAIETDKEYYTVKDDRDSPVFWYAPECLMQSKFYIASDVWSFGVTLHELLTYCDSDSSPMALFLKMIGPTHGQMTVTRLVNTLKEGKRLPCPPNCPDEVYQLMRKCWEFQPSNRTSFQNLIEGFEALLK
Sequence of GST-JAK3 enzyme (P52333 whole entry): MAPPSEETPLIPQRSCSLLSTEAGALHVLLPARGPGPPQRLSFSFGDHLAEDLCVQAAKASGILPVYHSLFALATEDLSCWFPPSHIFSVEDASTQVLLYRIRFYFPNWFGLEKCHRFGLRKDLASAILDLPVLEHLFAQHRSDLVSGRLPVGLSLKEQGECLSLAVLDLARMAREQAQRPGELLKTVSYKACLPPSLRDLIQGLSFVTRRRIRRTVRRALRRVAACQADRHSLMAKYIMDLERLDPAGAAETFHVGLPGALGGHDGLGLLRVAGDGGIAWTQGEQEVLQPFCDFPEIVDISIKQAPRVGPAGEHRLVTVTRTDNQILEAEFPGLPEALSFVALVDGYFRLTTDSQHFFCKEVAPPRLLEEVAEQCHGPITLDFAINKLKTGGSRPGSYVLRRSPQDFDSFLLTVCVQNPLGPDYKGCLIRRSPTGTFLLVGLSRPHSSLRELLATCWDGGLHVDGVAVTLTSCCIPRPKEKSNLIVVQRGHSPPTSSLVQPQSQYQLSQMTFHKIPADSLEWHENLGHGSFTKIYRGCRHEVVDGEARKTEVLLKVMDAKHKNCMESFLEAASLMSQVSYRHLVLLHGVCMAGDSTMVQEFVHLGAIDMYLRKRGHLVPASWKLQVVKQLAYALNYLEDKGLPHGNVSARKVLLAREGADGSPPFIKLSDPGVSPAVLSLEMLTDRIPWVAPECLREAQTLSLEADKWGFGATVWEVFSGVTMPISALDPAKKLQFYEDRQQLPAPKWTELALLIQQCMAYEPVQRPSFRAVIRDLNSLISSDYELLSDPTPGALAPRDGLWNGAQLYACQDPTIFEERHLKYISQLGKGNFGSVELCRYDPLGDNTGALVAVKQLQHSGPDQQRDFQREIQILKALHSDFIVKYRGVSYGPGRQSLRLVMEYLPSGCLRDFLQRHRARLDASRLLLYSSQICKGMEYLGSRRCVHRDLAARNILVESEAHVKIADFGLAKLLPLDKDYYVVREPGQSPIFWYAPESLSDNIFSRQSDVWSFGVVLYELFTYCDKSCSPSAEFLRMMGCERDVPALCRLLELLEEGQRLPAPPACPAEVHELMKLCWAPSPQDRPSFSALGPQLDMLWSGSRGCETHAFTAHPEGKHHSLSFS

As to `CC[C@H]1CN(C(=O)C2(C#N)CC2)C[C@H]1Nc1c(C(N)=O)cnn2cc(-c3cn(C)nc3C)cc12` [Example 220, 4-((3S,4S)-1-(1-cyanocyclopropanecarbonyl)-4-ethylpyrrolidin-3-ylamino)-6-(1,3-dimethyl-1H-pyrazol-4-yl)pyrrolo[1,2-b]pyridazine-3-carboxamide], the IC50 at GST-JAK3 enzyme came out at 1.5 nM; at GST-JAK1 enzyme, 1.1 nM.

For `CC[C@H]1CN(C(=O)C2(C#N)CC2)C[C@H]1Nc1c(C(N)=O)cnn2cc(-c3ccc(C)nc3)cc12` [Example 221, 4-((3S,4S)-1-(1-cyanocyclopropanecarbonyl)-4-ethylpyrrolidin-3-ylamino)-6-(6-methylpyridin-3-yl)pyrrolo[1,2-b]pyridazine-3-carboxamide], the IC50 on GST-JAK3 enzyme is 1.4 nM; at GST-JAK1 enzyme it was 1 nM.

`CCNC(=O)c1ccc(-c2cc3c(N[C@@H]4CN(C(=O)C(C)(C)C#N)C[C@@H]4CC)c(C(N)=O)cnn3c2)cn1` [Example 252, 4-((3S,4S)-1-(2-cyano-2-methylpropanoyl)-4-ethylpyrrolidin-3-ylamino)-6-(6-(ethylcarbamoyl)pyridin-3-yl)pyrrolo[1,2-b]pyridazine-3-carboxamide]: the results for the half-maximal inhibitory concentration (IC50) at GST-JAK3 enzyme and on GST-JAK1 enzyme were 8.6 nM and 4.3 nM, respectively.

On to `CC[C@H]1CN(C(=O)C2(C#N)CCC2)C[C@H]1Nc1c(C(N)=O)cnn2cc(-c3ccnc(Cl)c3)cc12` [Example 257, 6-(2-chloropyridin-4-yl)-4-((3S,4S)-1-(1-cyanocyclobutanecarbonyl)-4-ethylpyrrolidin-3-ylamino)pyrrolo[1,2-b]pyridazine-3-carboxamide], for which the results for the IC50 on GST-JAK3 enzyme and at GST-JAK1 enzyme were 0.3 nM and 1.2 nM, respectively.

`COc1ncc(-c2cc3c(N[C@@H]4CN(C(=O)C5(C#N)CC5)C[C@@H]4CF)c(C(N)=O)cnn3c2)cn1` [Example 280, 4-((3S,4S)-1-(1-cyanocyclopropanecarbonyl)-4-(fluoromethyl)pyrrolidin-3-ylamino)-6-(2-methoxypyrimidin-5-yl)pyrrolo[1,2-b]pyridazine-3-carboxamide]: the IC50 at GST-JAK3 enzyme is 8.9 nM; at GST-JAK1 enzyme, 0.9 nM.

In the case of `CCOc1ncc(-c2cc3c(N[C@@H]4CN(C(=O)C5(C#N)CC5)C[C@@H]4CF)c(C(N)=O)cnn3c2)cn1` [Example 281, 4-((3S,4S)-1-(1-cyanocyclopropanecarbonyl)-4-(fluoromethyl)pyrrolidin-3-ylamino)-6-(2-ethoxypyrimidin-5-yl)pyrrolo[1,2-b]pyridazine-3-carboxamide], the results for the IC50 on GST-JAK3 enzyme and on GST-JAK1 enzyme were 11.8 nM and 1.8 nM, respectively.

Consider `CC[C@H]1CN(C(=O)C2(C#N)CC2)C[C@H]1Nc1c(C(N)=O)cnn2cc(-c3cc(C)no3)cc12` [Example 292, 4-(((3S,4S)-1-(1-cyanocyclopropanecarbonyl)-4-ethylpyrrolidin-3-yl)amino)-6-(3-methylisoxazol-5-yl)pyrrolo[1,2-b]pyridazine-3-carboxamide], for which the IC50 at GST-JAK3 enzyme was found to be 0.5 nM; at GST-JAK1 enzyme it was 0.7 nM.

`CNC(=O)c1cccc(-c2cc3c(N[C@@H]4CN(C(=O)C5(C#N)CC5)C[C@@H]4OC)c(C(N)=O)cnn3c2)c1` [Example 303, 4-(((3R,4S)-1-(1-cyanocyclopropanecarbonyl)-4-methoxypyrrolidin-3-yl)amino)-6-(3-(methylcarbamoyl)phenyl)pyrrolo[1,2-b]pyridazine-3-carboxamide]: the values for the IC50 on GST-JAK3 enzyme and on GST-JAK1 enzyme were 1.5 nM and 0.5 nM, respectively.

`CO[C@H]1CN(C(=O)C2(C#N)CC2)C[C@H]1Nc1c(C(N)=O)cnn2cc(-c3ccc(F)cc3)cc12` [Example 305, 4-(((3R,4S)-1-(1-cyanocyclopropanecarbonyl)-4-methoxypyrrolidin-3-yl)amino)-6-(4-fluorophenyl)pyrrolo[1,2-b]pyridazine-3-carboxamide]: the IC50 at GST-JAK3 enzyme is 1.5 nM; on GST-JAK1 enzyme, 1.1 nM.

In the case of `CO[C@H]1CN(C(=O)C2(C#N)CC2)C[C@H]1Nc1c(C(N)=O)cnn2cc(-c3ccc(C#N)cc3)cc12` [Example 308, 4-(((3R,4S)-1-(1-cyanocyclopropanecarbonyl)-4-methoxypyrrolidin-3-yl)amino)-6-(4-cyanophenyl)pyrrolo[1,2-b]pyridazine-3-carboxamide], the IC50 is 6.6 nM at GST-JAK3 enzyme and 1.5 nM at GST-JAK1 enzyme.

Take `COc1ccc(-c2cc3c(N[C@@H]4CN(S(C)(=O)=O)C[C@@H]4OC)c(C(N)=O)cnn3c2)cn1` [Example 315, 4-((3R,4S)-4-methoxy-1-(methylsulfonyl)pyrrolidin-3-ylamino)-6-(6-methoxypyridin-3-yl)pyrrolo[1,2-b]pyridazine-3-carboxamide]: the IC50 at GST-JAK3 enzyme worked out at 8.9 nM; at GST-JAK1 enzyme it was 8 nM.
